Legend:
Conditions in all cases: Compound concentration 100.0 nM
[1] = target: Serine/threonine-protein kinase 10 (Homo sapiens) (UniProt O94804)
[2] = target: Cyclin-dependent kinase 11A (Homo sapiens) (UniProt Q9UQ88)
[3] = target: Mitogen-activated protein kinase kinase kinase 13 (Homo sapiens) (UniProt O43283)
[4] = target: Serine/threonine-protein kinase tousled-like 1 (Homo sapiens) (UniProt Q9UKI8)
[5] = target: Serine/threonine-protein kinase Nek7 (Homo sapiens) (UniProt Q8TDX7)
[6] = target: Bone morphogenetic protein receptor type-1B (Homo sapiens) (UniProt O00238)
[7] = target: cGMP-dependent protein kinase 2 (Homo sapiens) (UniProt Q13237)
[8] = target: Dual specificity testis-specific protein kinase 1 (Homo sapiens) (UniProt Q15569)
[9] = target: Homeodomain-interacting protein kinase 4 (Homo sapiens) (UniProt Q8NE63)
[10] = target: Casein kinase I isoform gamma-2 (Homo sapiens) (UniProt P78368)
[11] = target: Serine/threonine-protein kinase MARK2 (Homo sapiens) (UniProt Q7KZI7)
[12] = target: MAP kinase-interacting serine/threonine-protein kinase 2 (Homo sapiens) (UniProt Q9HBH9)
[13] = target: Serine/threonine-protein kinase 38 (Homo sapiens) (UniProt Q15208)
[14] = target: T1, Inhibitor of nuclear factor kappa-B kinase subunit beta (Homo sapiens) (UniProt O14920)
T1 sequence (whole entry): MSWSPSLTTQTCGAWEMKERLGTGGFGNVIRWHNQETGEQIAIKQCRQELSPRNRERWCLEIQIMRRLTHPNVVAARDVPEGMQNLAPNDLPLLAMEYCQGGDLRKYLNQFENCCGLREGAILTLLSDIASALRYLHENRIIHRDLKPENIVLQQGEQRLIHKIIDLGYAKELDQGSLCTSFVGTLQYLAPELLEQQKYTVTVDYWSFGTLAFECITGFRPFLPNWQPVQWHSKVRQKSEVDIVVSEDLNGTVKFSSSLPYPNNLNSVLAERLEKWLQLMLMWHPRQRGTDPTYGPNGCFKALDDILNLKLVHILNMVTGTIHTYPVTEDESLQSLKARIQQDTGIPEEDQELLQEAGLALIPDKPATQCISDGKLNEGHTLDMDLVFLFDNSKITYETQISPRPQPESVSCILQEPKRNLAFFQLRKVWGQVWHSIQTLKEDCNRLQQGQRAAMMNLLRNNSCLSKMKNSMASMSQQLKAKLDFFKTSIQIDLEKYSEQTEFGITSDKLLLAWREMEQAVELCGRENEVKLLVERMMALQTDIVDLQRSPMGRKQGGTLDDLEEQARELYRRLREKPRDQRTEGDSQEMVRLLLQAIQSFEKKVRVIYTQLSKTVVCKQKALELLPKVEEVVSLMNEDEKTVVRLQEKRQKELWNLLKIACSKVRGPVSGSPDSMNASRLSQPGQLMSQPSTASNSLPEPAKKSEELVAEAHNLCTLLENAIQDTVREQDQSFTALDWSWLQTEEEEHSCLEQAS

[15] = target: Testis-specific serine/threonine-protein kinase 1 (Homo sapiens) (UniProt Q9BXA7)
[16] = target: Serine/threonine-protein kinase Nek2 (Homo sapiens) (UniProt P51955)
[17] = target: Serine/threonine-protein kinase PAK 5 (Homo sapiens) (UniProt Q9P286)
[18] = target: NT-3 growth factor receptor (Homo sapiens) (UniProt Q16288)
[19] = target: Dual specificity mitogen-activated protein kinase kinase 4 (Homo sapiens) (UniProt P45985)
[20] = system: Tyrosine-protein kinase ABL1 (Homo sapiens), P00519 [T315I]
[21] = target: Death-associated protein kinase 2 (Homo sapiens) (UniProt Q9UIK4)
[22] = target: Myosin-IIIa (Homo sapiens) (UniProt Q8NEV4)
[23] = target: Ribosomal protein S6 kinase alpha-3 (Homo sapiens) (UniProt P51812)
[24] = target: cAMP-dependent protein kinase catalytic subunit alpha (Homo sapiens) (UniProt P17612)
[25] = target: Calcium/calmodulin-dependent protein kinase type 1B (Homo sapiens) (UniProt Q6P2M8)
[26] = target: NUAK family SNF1-like kinase 2 (Homo sapiens) (UniProt Q9H093)
[27] = target: Ephrin type-B receptor 1 (Homo sapiens) (UniProt P54762)
[28] = target: Vascular endothelial growth factor receptor 1 (Homo sapiens) (UniProt P17948)
[29] = target: Mitogen-activated protein kinase kinase kinase 12 (Homo sapiens) (UniProt Q12852)
[30] = system: Tyrosine-protein kinase ABL1 (Homo sapiens), P00519 [Q252H]
[31] = target: Insulin receptor-related protein (Homo sapiens) (UniProt P14616)
[32] = target: Interleukin-1 receptor-associated kinase 1 (Homo sapiens) (UniProt P51617)
[33] = target: Mitogen-activated protein kinase 6 (Homo sapiens) (UniProt Q16659)
[34] = system: Proto-oncogene tyrosine-protein kinase receptor Ret (Homo sapiens), P07949 [V804L]
[35] = target: Platelet-derived growth factor receptor alpha (Homo sapiens) (UniProt P16234)

Chain of Bone morphogenetic protein receptor type-1B (Homo sapiens) (O00238 whole entry): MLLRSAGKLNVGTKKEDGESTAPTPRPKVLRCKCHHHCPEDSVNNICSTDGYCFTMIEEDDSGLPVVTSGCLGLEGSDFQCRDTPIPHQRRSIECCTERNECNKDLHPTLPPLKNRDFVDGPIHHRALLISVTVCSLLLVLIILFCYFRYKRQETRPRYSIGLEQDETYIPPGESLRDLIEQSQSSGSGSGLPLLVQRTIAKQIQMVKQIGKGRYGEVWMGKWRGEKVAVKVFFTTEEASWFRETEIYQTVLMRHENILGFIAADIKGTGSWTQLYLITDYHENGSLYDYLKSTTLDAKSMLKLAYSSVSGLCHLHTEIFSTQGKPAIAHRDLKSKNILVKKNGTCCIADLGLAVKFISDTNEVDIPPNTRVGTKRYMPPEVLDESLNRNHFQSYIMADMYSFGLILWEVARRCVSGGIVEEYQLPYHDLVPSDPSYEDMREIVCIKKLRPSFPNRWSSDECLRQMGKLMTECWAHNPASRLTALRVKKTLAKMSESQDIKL
Chain of Serine/threonine-protein kinase Nek7 (Homo sapiens) (Q8TDX7 whole entry, looked up): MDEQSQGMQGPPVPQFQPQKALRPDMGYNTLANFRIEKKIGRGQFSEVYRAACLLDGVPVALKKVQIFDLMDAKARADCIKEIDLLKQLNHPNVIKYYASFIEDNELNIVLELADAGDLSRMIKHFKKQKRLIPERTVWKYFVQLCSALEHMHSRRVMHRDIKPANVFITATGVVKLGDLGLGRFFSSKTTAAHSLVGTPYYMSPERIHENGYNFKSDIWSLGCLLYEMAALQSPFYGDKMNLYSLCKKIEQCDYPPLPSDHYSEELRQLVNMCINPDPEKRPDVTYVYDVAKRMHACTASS
Chain of Cyclin-dependent kinase 11A (Homo sapiens) (Q9UQ88 whole entry): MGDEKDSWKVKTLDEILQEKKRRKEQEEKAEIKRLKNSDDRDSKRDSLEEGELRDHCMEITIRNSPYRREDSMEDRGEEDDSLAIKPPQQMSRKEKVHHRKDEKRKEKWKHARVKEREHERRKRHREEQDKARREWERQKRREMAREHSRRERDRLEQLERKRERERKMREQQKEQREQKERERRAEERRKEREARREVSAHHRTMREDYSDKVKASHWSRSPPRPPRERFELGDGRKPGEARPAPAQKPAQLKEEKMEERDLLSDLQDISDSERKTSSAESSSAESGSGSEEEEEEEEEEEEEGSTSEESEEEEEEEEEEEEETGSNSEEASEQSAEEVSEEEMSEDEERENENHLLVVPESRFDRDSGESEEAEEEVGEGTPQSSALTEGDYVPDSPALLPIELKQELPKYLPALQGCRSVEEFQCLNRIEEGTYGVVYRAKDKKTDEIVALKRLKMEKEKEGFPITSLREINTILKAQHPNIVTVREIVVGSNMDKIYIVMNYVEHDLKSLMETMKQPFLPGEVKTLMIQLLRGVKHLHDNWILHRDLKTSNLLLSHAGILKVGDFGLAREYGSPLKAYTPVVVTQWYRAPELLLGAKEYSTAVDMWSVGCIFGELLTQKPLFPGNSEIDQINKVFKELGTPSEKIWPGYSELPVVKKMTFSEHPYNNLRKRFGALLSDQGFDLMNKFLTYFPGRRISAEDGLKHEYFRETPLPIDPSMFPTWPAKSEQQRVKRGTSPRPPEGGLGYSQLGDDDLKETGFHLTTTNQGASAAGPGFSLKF
Chain of Myosin-IIIa (Homo sapiens) (Q8NEV4 whole entry): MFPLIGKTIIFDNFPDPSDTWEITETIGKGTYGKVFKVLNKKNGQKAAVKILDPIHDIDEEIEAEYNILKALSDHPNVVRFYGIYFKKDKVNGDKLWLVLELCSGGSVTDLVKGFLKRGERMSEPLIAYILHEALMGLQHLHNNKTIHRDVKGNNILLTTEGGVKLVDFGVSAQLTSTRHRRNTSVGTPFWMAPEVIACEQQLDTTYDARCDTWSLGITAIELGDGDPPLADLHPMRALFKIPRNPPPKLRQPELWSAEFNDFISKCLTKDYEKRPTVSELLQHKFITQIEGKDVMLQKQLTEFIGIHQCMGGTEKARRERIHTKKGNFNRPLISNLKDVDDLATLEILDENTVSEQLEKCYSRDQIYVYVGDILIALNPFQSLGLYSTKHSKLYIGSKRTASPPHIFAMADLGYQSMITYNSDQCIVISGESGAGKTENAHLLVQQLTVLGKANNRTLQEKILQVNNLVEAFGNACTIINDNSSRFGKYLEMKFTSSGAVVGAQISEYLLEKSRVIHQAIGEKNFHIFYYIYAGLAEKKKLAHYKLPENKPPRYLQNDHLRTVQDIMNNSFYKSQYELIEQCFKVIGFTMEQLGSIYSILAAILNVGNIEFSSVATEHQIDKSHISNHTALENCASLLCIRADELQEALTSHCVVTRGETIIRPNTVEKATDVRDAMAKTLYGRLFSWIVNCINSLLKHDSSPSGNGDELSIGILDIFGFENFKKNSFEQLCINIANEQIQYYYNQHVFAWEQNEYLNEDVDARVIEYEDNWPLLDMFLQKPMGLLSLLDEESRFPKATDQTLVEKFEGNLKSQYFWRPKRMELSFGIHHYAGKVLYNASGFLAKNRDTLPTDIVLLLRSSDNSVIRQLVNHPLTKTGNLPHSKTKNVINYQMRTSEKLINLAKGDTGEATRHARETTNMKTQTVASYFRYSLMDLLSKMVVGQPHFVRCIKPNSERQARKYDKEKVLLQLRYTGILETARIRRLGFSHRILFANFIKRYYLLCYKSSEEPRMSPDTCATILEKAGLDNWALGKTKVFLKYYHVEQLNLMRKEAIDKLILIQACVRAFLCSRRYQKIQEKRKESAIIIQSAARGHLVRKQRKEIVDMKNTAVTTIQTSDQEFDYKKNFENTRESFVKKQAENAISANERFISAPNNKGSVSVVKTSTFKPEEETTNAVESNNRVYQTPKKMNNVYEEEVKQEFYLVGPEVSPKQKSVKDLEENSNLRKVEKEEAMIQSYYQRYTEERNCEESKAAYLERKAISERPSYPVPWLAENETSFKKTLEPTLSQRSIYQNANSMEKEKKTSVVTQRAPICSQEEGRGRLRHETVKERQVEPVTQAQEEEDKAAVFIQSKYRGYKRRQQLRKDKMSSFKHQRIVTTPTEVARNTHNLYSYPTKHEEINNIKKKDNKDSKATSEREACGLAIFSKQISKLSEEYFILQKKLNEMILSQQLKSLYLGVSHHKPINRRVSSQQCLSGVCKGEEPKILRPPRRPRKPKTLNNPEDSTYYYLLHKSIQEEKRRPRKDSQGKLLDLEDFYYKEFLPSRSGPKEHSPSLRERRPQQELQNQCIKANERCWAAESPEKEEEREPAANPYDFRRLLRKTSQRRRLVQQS
Chain of Dual specificity testis-specific protein kinase 1 (Homo sapiens) (Q15569 whole entry, looked up): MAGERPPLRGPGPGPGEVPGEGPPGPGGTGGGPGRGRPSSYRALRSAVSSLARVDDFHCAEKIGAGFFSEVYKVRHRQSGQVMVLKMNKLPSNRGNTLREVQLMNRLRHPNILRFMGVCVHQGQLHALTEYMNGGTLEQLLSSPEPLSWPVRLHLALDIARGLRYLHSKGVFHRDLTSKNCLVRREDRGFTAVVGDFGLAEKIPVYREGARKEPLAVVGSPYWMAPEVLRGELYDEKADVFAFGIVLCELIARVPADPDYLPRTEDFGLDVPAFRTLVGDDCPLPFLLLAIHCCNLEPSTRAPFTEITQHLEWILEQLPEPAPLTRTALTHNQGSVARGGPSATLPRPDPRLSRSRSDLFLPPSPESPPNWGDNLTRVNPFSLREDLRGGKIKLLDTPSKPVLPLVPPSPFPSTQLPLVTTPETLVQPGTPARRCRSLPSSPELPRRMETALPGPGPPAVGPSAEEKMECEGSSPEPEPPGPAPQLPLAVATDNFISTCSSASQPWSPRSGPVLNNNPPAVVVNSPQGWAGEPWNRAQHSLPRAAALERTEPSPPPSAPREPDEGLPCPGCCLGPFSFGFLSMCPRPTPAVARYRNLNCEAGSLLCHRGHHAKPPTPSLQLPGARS
Chain of Serine/threonine-protein kinase PAK 5 (Homo sapiens) (Q9P286 whole entry, looked up): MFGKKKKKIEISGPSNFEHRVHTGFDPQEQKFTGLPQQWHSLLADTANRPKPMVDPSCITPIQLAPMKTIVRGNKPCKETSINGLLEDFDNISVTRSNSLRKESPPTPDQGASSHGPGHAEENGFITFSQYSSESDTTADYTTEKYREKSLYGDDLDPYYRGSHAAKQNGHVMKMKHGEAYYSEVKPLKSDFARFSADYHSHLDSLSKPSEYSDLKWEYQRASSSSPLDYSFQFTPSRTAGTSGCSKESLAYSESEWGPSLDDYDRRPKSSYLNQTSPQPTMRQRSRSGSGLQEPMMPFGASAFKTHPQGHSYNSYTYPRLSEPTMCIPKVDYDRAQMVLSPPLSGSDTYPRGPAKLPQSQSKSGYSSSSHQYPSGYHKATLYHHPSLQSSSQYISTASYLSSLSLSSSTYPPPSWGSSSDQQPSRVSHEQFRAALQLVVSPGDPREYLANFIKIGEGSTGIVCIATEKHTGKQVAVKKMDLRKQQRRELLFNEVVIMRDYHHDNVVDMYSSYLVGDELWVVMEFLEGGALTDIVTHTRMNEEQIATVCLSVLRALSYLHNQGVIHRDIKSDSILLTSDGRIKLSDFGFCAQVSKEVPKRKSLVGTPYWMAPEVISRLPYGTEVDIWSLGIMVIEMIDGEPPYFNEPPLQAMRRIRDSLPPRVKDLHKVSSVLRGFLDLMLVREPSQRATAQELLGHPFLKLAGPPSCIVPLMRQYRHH
Chain of Serine/threonine-protein kinase 38 (Homo sapiens) (Q15208 2-465 limits assumed): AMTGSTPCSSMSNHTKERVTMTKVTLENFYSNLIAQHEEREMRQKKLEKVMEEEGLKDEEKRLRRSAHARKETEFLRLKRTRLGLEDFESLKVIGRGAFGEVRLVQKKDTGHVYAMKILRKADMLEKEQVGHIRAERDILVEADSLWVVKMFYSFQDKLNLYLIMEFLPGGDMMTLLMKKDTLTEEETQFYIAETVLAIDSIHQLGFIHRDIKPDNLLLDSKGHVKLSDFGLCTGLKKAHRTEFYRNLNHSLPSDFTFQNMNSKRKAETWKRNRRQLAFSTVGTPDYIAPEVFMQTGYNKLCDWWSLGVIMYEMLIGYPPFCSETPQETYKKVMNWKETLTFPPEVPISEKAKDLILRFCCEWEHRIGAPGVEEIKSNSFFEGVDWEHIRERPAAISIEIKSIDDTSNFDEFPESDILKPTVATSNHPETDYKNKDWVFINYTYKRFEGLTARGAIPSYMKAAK

Row | Structure (SMILES) | residual activity [1] [%] | residual activity [2] [%] | residual activity [3] [%] | residual activity [4] [%] | residual activity [5] [%] | residual activity [6] [%] | residual activity [7] [%] | residual activity [8] [%] | residual activity [9] [%] | residual activity [10] [%] | residual activity [11] [%] | residual activity [12] [%] | residual activity [13] [%] | residual activity [14] [%] | residual activity [15] [%] | residual activity [16] [%] | residual activity [17] [%] | residual activity [18] [%] | residual activity [19] [%] | residual activity [20] [%] | other results
1 | CCOC(=O)c1cc2cc(-c3cc(C(=O)NCc4ccc(C(=O)O)cc4)nn3C)ccc2[nH]1 [BI 4394] | 100 | 100 | 74 | 83 | 100 | 96 | 93 | 97 | 87 | 79 | 100 | 92 | 95 | 100 | 100 | 99 | 95 | 94 | 93 | 83 | residual activity [21]: 92%; residual activity [22]: 100%; residual activity [23]: 80%; residual activity [24]: 85%; residual activity [25]: 97%; residual activity [26]: 85%; residual activity [27]: 100%; residual activity [28]: 97%; residual activity [29]: 79%; residual activity [30]: 81%; residual activity [31]: 77%; residual activity [32]: 85%; residual activity [33]: 97%; residual activity [34]: 99%; residual activity [35]: 86%
2 | Cn1nc(C(=O)NCc2ccc(C(=O)O)cc2)cc1-c1ccc2[nH]ccc2c1 [BI 4395] | 80 | 96 | 78 | 100 | 98 | 88 | 78 | 92 | 100 | 90 | 100 | 96 | 92 | 93 | 100 | 95 | 62 | 89 | 79 | 73 | residual activity [21]: 96%; residual activity [22]: 95%; residual activity [23]: 70%; residual activity [24]: 100%; residual activity [25]: 100%; residual activity [26]: 87%; residual activity [27]: 87%; residual activity [28]: 89%; residual activity [29]: 100%; residual activity [30]: 77%; residual activity [31]: 98%; residual activity [32]: 93%; residual activity [33]: 100%; residual activity [34]: 45%; residual activity [35]: 100%

From ChEMBL document CHEMBL4507281, “Data for DCP probe BI-4394” (2021)
